The target of one assay is T1, IL-23R (Homo sapiens, UniProt Q5VWK5).
T1 construct: HEK293 cells containing IL-23R, IL-12Rβ1 and a firefly luciferase reporter gene driven by a STAT-inducible promoter (Promega); host or cells: HEK293
T1 sequence (Q5VWK5 24-629): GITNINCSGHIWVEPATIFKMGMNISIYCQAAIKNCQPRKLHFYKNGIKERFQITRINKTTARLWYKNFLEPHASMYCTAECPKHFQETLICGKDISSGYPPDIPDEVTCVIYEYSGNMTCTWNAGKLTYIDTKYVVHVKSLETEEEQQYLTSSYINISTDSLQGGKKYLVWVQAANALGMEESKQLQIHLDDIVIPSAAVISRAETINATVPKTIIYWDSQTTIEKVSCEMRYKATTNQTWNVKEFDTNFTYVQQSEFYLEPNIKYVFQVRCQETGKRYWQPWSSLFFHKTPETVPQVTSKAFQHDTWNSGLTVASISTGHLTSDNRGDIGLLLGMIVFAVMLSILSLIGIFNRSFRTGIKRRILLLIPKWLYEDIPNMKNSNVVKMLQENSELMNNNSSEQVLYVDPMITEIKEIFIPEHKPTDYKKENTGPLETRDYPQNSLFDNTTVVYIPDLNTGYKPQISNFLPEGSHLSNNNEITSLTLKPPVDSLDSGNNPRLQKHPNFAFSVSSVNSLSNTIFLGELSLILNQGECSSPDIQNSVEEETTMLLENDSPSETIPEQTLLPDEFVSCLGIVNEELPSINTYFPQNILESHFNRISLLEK
Briefly: IL23R Reporter Assay. Format: cell-based. The settings on record: HEK293 cells containing IL-23R, IL-12Rβ1 and STAT-inducible firefly luciferase reporter; 10 ng/mL IL-23 (EC90); 5 h. The method, boiled down:
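HEK293 cells carrying IL-23R, IL-12Rβ1 and a STAT-driven firefly luciferase reporter (4000 cells/well) received compound, then 10 ng/mL IL-23 solution (EC90), and were incubated for 5 h at 37° C. BioGlo luminescence was normalised to IL-23 alone (0%) and 30 μM control inhibitor (100%). IC50 came from a 4-parameter Hill fit.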

Assay [1] deals with IL-23-stimulated phosphorylated STAT3 in peripheral blood mononuclear cells (PBMCs). Briefly: PBMC pSTAT3 Assay. Format: cell-based. The settings on record: PBMCs from healthy donors; 30 min preincubation with peptide; IL-23 5 ng/mL for 30 min; phospho-STAT3 by MSD. A digest of the protocol:
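Healthy-donor PBMCs expanded 4 days on anti-CD3 with 100 ng/mL IL-1β, starved ~4 h in RPMI-0.1% BSA, preincubated 30 min with peptide, then stimulated 30 min at 37 °C with 5 ng/mL IL-23. Lysate pSTAT3 measured by MSD phospho-STAT panel; IC50 derived.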

The values below come from US20260250320A1, “LIPIDATED PEPTIDE INHIBITORS OF INTERLEUKIN-23 RECEPTOR” (Janssen Pharmaceutica NV, priority 2023, published 2026).

*1 amine or outer side, *2 acyl side, *3 side chain or, on linkers, in order; H or OH if unused. Where a SMILES comes first, the peptide text is derived from it. Bridges are numbered along the chain shown (N, C = ends). Side-chain parts run from the residue outwards. [ ]: non-standard residue; d: D form. The star is where a group is joined. X9 = O=C(O)CCCCCCCCCCCCCCCCC(=O)N[C@@H](CCC(=O)NCCOCCOCCOCCOCCOCCOCCOCCOCCOCCOCCOCCCCCC(=O)*)C(=O)O; Me3N+(CH2)2O(CH2)2O(CH2)2CO = C[N+](C)(C)CCOCCOCCC(=O)*; PEG12 = NCCOCCOCCOCCOCCOCCOCCOCCOCCOCCOCCOCCOCCC(=O)O; NH(CH2CH2O)2CH2CH2NMe3+ = C[N+](C)(C)CCOCCOCCN*; Trp(7-Me) = Cc1cccc2c(C[C@H](N)C(=O)O)c[nH]c12; X37 = Cc1cccc2c1CC=C2C[C@H](N[*:1])C(=O)[*:2]; C18 diacid = O=C(O)CCCCCCCCCCCCCCCCC(=O)*; γGlu = O=C(O)[C@H](CCC(=O)[*:2])N[*:1]; 2Nal = N[C@@H](Cc1ccc2ccccc2c1)C(=O)O; AEF = NCCOc1ccc(C[C@H](N)C(=O)O)cc1; X2 = C[N+](C)(C)C[C@@H](CC(=O)O)N*; 3Pal = N[C@@H](Cc1cccnc1)C(=O)O; Lys(Me) = CNCCCC[C@H](N)C(=O)O; Pen = CC(C)(S)[C@H](N)C(=O)O; Suc = O=C(CCC(=O)[*:2])[*:1]; Thp = NC1(C(=O)O)CCOCC1; X1 = C[N+](C)(C)CCCCC*; AEEA = NCCOCCOCC(=O)O; Sar = CNCC(=O)O

As for `CC(=O)NCCCC[C@@H]1NC(=O)[C@H](Cc2c[nH]c3c(C)cccc23)NC(=O)[C@H]([C@@H](C)O)NC(=O)[C@H](CCCCNC(=O)COCCOCCNC(=O)COCCOCCNC(=O)CC[C@H](NC(=O)CCCCCCCCCCCCCCCCC(=O)O)C(=O)O)NC(=O)[C@@H](NC(=O)[C@@H](CCCNC(=N)N)NC(C)=O)C(C)(C)SSC(C)(C)[C@@H](C(=O)N[C@@H](Cc2ccc(OCCN)cc2)C(=O)N[C@@H](Cc2ccc3ccccc3c2)C(=O)NC2(C(=O)N[C@@H](CCC(=O)O)C(=O)N[C@@H](CC(N)=O)C(=O)N[C@@H](Cc3cccnc3)C(=O)N(C)CC(=O)NCCOCCOCC[N+](C)(C)C)CCOCC2)NC1=O` [compound 66, MeCO-r-Pen(3)-K(PEG2PEG2gEC18OH)-T-7MeW-K(Ac)-Pen(3)-AEF-2Nal-THP-E-N-3Pya-Sar-CONH(PEG3a)] (Ac-[dR][Pen]K([AEEA-AEEA-γGlu-C18 diacid])T[Trp(7-Me)]K(Ac)[Pen][AEF][2Nal][Thp]EN[3Pal][Sar]-{NH(CH2CH2O)2CH2CH2NMe3+}; disulfide 2-7), the IC50 was at least 500 nM against IL-23R and 0.5 to 5 nM in assay [1].
For `CC(=O)N[C@H](CCCNC(=N)N)C(=O)N[C@@H]1C(=O)N[C@@H](CCCCNC(=O)COCCOCCNC(=O)COCCOCCNC(=O)CC[C@H](NC(=O)CCCCCCCCCCCCCCCCC(=O)O)C(=O)O)C(=O)N[C@@H]([C@@H](C)O)C(=O)N[C@@H](Cc2c[nH]c3c(C)cccc23)C(=O)N[C@@H](CCCCN(C)C(=O)CCOCCOCC[N+](C)(C)C)C(=O)N[C@H](C(=O)N[C@@H](Cc2ccc(OCCN)cc2)C(=O)N[C@@H](Cc2ccc3ccccc3c2)C(=O)NC2(C(=O)N[C@@H](CCC(=O)O)C(=O)N[C@@H](CC(N)=O)C(=O)N[C@@H](Cc3cccnc3)C(=O)N(C)CC(N)=O)CCOCC2)C(C)(C)SSC1(C)C` [compound 76, MeCO-r-Pen(3)-K(PEG2PEG2gEC18OH)-T-7MeW-K(NMecPEG3a)-Pen(3)-AEF-2Nal-THP-E-N-3Pya-Sar-CONH2] (Ac-[dR][Pen]K([AEEA-AEEA-γGlu-C18 diacid])T[Trp(7-Me)][Lys(Me)](Me3N+(CH2)2O(CH2)2O(CH2)2CO)[Pen][AEF][2Nal][Thp]EN[3Pal][Sar]-NH2; disulfide 2-7), the results for the IC50 (against IL-23R; in assay [1]) were below 50 nM and below 0.5 nM, respectively.
For `CC(=O)N[C@H](CCCNC(=N)N)C(=O)N[C@@H]1C(=O)N[C@@H](CC(N)=O)C(=O)N[C@@H]([C@@H](C)O)C(=O)N[C@@H](Cc2c[nH]c3c(C)cccc23)C(=O)N[C@@H](CCC(N)=O)C(=O)N[C@H](C(=O)N[C@@H](Cc2ccc(OCCN)cc2)C(=O)N[C@@H](Cc2ccc3ccccc3c2)C(=O)NC2(C(=O)N[C@@H](CCC(=O)O)C(=O)N[C@@H](CC(N)=O)C(=O)N[C@@H](Cc3cccnc3)C(=O)N(C)CC(=O)N[C@@H](CCCCNC(=O)COCCOCCNC(=O)COCCOCCNC(=O)CC[C@H](NC(=O)CCCCCCCCCCCCCCCCC(=O)O)C(=O)O)C(=O)O)CCOCC2)C(C)(C)SSC1(C)C` [compound 38, MeCO-r-Pen(3)-N-T-7MeW-Q-Pen(3)-AEF-2Nal-THP-E-N-3Pya-Sar-K(PEG2PEG2gEC18OH)-CONH2] (Ac-[dR][Pen]NT[Trp(7-Me)]Q[Pen][AEF][2Nal][Thp]EN[3Pal][Sar]K([AEEA-AEEA-γGlu-C18 diacid])-OH; disulfide 2-7) the same measures were below 50 nM and below 0.5 nM.
For `CC(=O)N(C)CCCC[C@@H]1NC(=O)[C@H](Cc2c[nH]c3c(C)cccc23)NC(=O)[C@H]([C@@H](C)O)NC(=O)[C@H](CCCCNC(=O)CCCCCOCCOCCOCCOCCOCCOCCOCCOCCOCCOCCOCCNC(=O)CC[C@H](NC(=O)CCCCCCCCCCCCCCCCC(=O)O)C(=O)O)NC(=O)[C@@H](NC(=O)CCOCCOCC[N+](C)(C)C)C(C)(C)SSC(C)(C)[C@@H](C(=O)N[C@@H](Cc2ccc(OCCCCC[N+](C)(C)C)cc2)C(=O)N[C@@H](Cc2ccc3ccccc3c2)C(=O)NC2(C(=O)N[C@@H](CCCCN(C)C(C)=O)C(=O)N[C@@H](CC(N)=O)C(=O)N[C@@H](Cc3cccnc3)C(=O)N(C)CC(=O)N(C)C)CCOCC2)NC1=O` [compound 116, HOC18gEPEG12CO-Pen(3)-N-T-K(Ac)-Pen(3)-AEF-2Nal-THP-E-N-3Pya-Sar-CONH2] ({Me3N+(CH2)2O(CH2)2O(CH2)2CO}-[Pen]K(X9)T[Trp(7-Me)][Lys(Me)](Ac)[Pen]Y(X1)[2Nal][Thp][Lys(Me)](Ac)N[3Pal][Sar]-NMe2; disulfide 1-6), the figures for the concentration for half-maximal inhibition (IC50) (against IL-23R; in assay [1]) were below 50 nM and below 0.5 nM, respectively.
Take `CC(=O)N(C)CCCC[C@H](NC(=O)C1(NC(=O)[C@H](Cc2ccc3ccccc3c2)NC(=O)[C@H](Cc2ccc(OCCCCC[N+](C)(C)C)cc2)NC(=O)[C@H]2NC(=O)[C@H](CCCCNC(=O)CCOCCOCCOCCOCCOCCOCCOCCOCCOCCOCCOCCOCCNC(=O)CC[C@H](NC(=O)CCCCCCCCCCCCCCCCC(=O)O)C(=O)O)NC(=O)[C@H](CC3=CCc4c(C)cccc43)NC(=O)[C@H]([C@@H](C)O)NC(=O)[C@H](CC(=O)N(C)C)NC(=O)[C@@H](NC(=O)CCOCCOCC[N+](C)(C)C)C(C)(C)SSC2(C)C)CCOCC1)C(=O)N[C@@H](CC(N)=O)C(=O)N[C@@H](Cc1cccnc1)C(=O)N(C)CC(=O)N(C)C` [compound 124, cPEG3aCO-Pen(3)-N(N(Me)2)-T-7MeW-K(PEG12gEC18OH)-Pen(3)-TMAPF-2Nal-THP-K(NMeAc)-N-3Pya-Sar-CON(Me)2] ({Me3N+(CH2)2O(CH2)2O(CH2)2CO}-[Pen]D(NMe2)T[X37]K([PEG12-γGlu-C18 diacid])[Pen]Y(X1)[2Nal][Thp][Lys(Me)](Ac)N[3Pal][Sar]-NMe2; disulfide 1-6): the values for the half-maximal inhibitory concentration (IC50) (against IL-23R; in assay [1]) were below 50 nM and below 0.5 nM, respectively.
For the molecule `CC(=O)NCCCC[C@@H]1NC(=O)[C@H](Cc2c[nH]c3c(C)cccc23)NC(=O)[C@H]([C@@H](C)O)NC(=O)[C@H](CC(N)=O)NC(=O)[C@@H](NC(=O)[C@@H](CCCCNC(=O)COCCOCCNC(=O)COCCOCCNC(=O)CC[C@H](NC(=O)CCCCCCCCCCCCCCCCC(=O)O)C(=O)O)NC(C)=O)C(C)(C)SSC(C)(C)[C@@H](C(=O)N[C@@H](Cc2ccc(OCCN)cc2)C(=O)N[C@@H](Cc2ccc3ccccc3c2)C(=O)NC2(C(=O)N[C@@H](CCCCNC(=O)CCC(=O)N[C@H](CC(=O)O)C[N+](C)(C)C)C(=O)N[C@@H](CC(N)=O)C(=O)N[C@@H](Cc3cccnc3)C(=O)N(C)CC(N)=O)CCOCC2)NC1=O` [compound 33, MeCO-k(PEG2PEG2gEC18OH)-Pen(3)-N-T-7MeW-K(Ac)-Pen(3)-AEF-2Nal-THP-K(d)-N-3Pya-Sar-CONH2] (Ac-[dK]([AEEA-AEEA-γGlu-C18 diacid])[Pen]NT[Trp(7-Me)]K(Ac)[Pen][AEF][2Nal][Thp]K([Suc-X2])N[3Pal][Sar]-NH2; disulfide 2-7), the figures for the IC50 (against IL-23R; in assay [1]) were below 50 nM and below 0.5 nM, respectively.
With `CC(=O)NCCCC[C@@H]1NC(=O)[C@H](Cc2c[nH]c3c(C)cccc23)NC(=O)[C@H]([C@@H](C)O)NC(=O)[C@H](CC(N)=O)NC(=O)[C@@H](NC(=O)CCOCCOCC[N+](C)(C)C)C(C)(C)SSC(C)(C)[C@@H](C(=O)N[C@@H](Cc2ccc(OCCCCC[N+](C)(C)C)cc2)C(=O)N[C@@H](Cc2ccc3ccccc3c2)C(=O)NC2(C(=O)N[C@@H](CCCCNC(=O)COCCOCCNC(=O)COCCOCCNC(=O)CC[C@H](NC(=O)CCCCCCCCCCCCCCCCCCC(=O)O)C(=O)O)C(=O)N[C@@H](N)C(=O)N[C@@H](Cc3ccccn3)C(=O)N(C)CC(N)=O)CCOCC2)NC1=O` [compound 126, cPEG3aCO-Pen(3)-N(N(Me)2)-T-7MeW-K(NMeAc)-Pen(3)-TMAPF-2Nal-THP-K(PEG2PEG2gEC20OH)-N-3Pya-Sar-CON(Me)2], the half-maximal inhibitory concentration (IC50) on IL-23R was below 50 nM; in assay [1] it was below 0.5 nM.

As usually defined, the IC50 is the midpoint of a concentration-inhibition curve. Lower therefore signals inhibition by little substance.
